Test results taken from patent US12378250B2, “Tricyclic compound as IRAK4 inhibitor” (KOREA RESEARCH INSTITUTE OF CHEMICAL TECHNOLOGY, priority 2018, dated 2025).

Tests used:
[1] = tested on: TNF-α in serum, LPS-induced systemic inflammatory disease; assay: Suppressive effects on LPS-induced systemic inflammatory disease in mice (serum TNF-α); assay type: in vivo, C57BL/6 mice; conditions: doses of 50 and 100 mg/kg, oral, 2 hours prior to LPS 15 mg/kg i.p.
Protocol: As experimental animals, 8-week-old C57BL/6 (20 to 23 g) mice were supplied from Orient Bio Co., Ltd. (Seongnam, Gyeonggi-do) and used. The mice were acclimatized for 2 weeks or more in an animal room of the Korea Research Institute of Chemical Technology, where temperature (22±1° C.) and humidity (50±10%) were automatically adjusted, and then used for experiments, and allowed to freely ingest water and feed. This animal experiment was performed with the approval of the Animal Care and Use Committee of the Korea Research Institute of Chemical Technology. A systemic inflammatory disease was induced by administering a dose of 15 mg/kg lipopolysaccharide (LPS, Sigma L2880) intraperitoneally to the mice. A test drug was suspended in a 10% Cremophor solution and administered orally 2 hours prior to LPS injection, the mice were anesthetized with isoflurane 1 hour after LPS administration, and blood was collected from the heart. Serum was obtained by centrifuging the collected blood at 13,000 rpm for 15 minutes, store at −20° C., and then taken if needed to measure the content of cytokine (TNF-α) in serum using an ELISA kit manufactured by BD Biosciences. […]

IRAK4 enzyme = molecular target: T1, IRAK4 enzyme (Homo sapiens, UniProt Q9NWZ3); assay: IRAK4 enzyme inhibition degree (bead-based kinase assay, peptide substrate BMKC-2, 100 μM ATP); assay type: biochemical; conditions: compound 1 μM
T1 sequence (Q9NWZ3 1-460): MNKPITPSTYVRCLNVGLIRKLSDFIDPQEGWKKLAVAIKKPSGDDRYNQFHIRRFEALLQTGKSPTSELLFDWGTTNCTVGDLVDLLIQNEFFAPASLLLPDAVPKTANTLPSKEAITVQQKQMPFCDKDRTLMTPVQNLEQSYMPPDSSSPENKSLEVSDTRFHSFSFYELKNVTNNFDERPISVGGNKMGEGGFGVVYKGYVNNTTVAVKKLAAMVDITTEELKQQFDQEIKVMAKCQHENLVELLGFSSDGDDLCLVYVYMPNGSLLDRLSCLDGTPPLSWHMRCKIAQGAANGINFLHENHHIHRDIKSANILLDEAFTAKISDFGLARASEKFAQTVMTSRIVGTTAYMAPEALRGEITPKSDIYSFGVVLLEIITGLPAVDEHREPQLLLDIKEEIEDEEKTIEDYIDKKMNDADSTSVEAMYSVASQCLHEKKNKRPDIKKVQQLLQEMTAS
Method in brief: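 IRAK4 (0.4 ng/μl stock) preincubated 10 min with compound, then 6 μM BMKC-2 peptide with 100 μM ATP (mix concentrations) for 60 min at room temperature; EDTA stop. Phospho-Thr antibody with AlphaScreen donor/acceptor beads detected product; % inhibition versus controls, IC50 by non-linear regression.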

- inhibition at 1 µM (IRAK4 enzyme): 100%
Compound: Fc1cncc(-c2ccc3[nH]c4ncnc(N[C@H]5CC[C@H](N6CCOCC6)CC5)c4c3c2)c1 [Compound 6aaf, 6-(5-fluoropyridin-3-yl)-N-(trans-4-morpholinocyclohexyl)-9H-pyrimido[4,5-b]indole-4-amine]
- suppressive effect on systemic inflammation (serum TNF-α) compared to PF-06650833 [1]: better suppressive effect than PF-06650833
